For 87 molecules, melting point results are on record in a melting point compilation (Tetko et al.; mined from patent text by program, amines drawn as free bases though some values may be those of a salt).

Where only a bound is given, the exact number is not on record here.

What is called melting point is the temperature of the solid-liquid transition. For the molecule `N#Cc1c(N2CCN(C(=O)c3ccco3)CC2)c2cc(F)cnc2n(CC(=O)c2ccccc2)c1=O`, the melting point came out at 293 °C.
On to `CS(=O)(=O)Nc1ccc(OCCN2CCC(C(=O)c3ccc(NS(C)(=O)=O)cc3)CC2)cc1`, for which the melting point lay in the range of 168 to 172 °C.
On to `Cc1ccc(-c2ccc(C(CCC(=O)O)=NO)cc2)cc1`, for which the melting point lay in the range of 176 to 178 °C.
In turn, `CS(=O)(=O)NC(=O)c1ccccc1Nc1ccc(CCCc2ccc(Cl)c(Cl)c2)cc1` came in with a melting point of 53 to 61 °C.
The molecule `C=C1CC(c2cnc(-c3ccccc3Cl)s2)N(C)C1=O` (configuration not stated) yielded a melting point of 96 to 105 °C.
Molecule `CN1CC(CCCO)CC2(OCCO)c3cccc4[nH]cc(c34)CC12` (configuration not stated) displayed a melting point of 212 to 215 °C.
For the molecule `CC(=O)Nc1ccc(S(=O)(=O)O)c(NCC(=O)O)c1`, the melting point was 234 to 235 °C.
`CC(=O)SCC(Cc1ccccc1)C(=O)Nc1c(Cl)cccc1C(=O)O` (configuration not stated) gave a melting point of 123 to 127 °C.
`COc1cc2c(cc1OC)N(c1ccc([N+](=O)[O-])cc1[N+](=O)[O-])CC2`: the melting point came to 219 °C.
For the molecule `CC(C)(O)c1ccc(C(=O)Nc2cn3cc(-n4ccnc4)ccc3n2)cc1`, the melting point fell in the range of 281 to 282 °C.
`COC(=O)Cc1csc(NC(=O)C(CC2CCCC2)c2ccc(Cl)c(Cl)c2)n1` (configuration not stated) registered a melting point of 150 to 151 °C.
The molecule `N#Cc1cc(C(F)(F)F)[nH]c1-c1ccc(Cl)c([N+](=O)[O-])c1` gave a melting point of 258 to 260 °C.
As to `COc1cccc(C(=O)N2CCc3cc(O)c(OC)cc3C2=O)c1`, the melting point was 198 to 199 °C.
The same measure for `C=CCNc1nc(C2C(=O)Nc3ccc(C#N)cc32)c2cn(C3CCCC3)nc2n1` (configuration not stated): more than 300 °C.
In turn, `COc1cc(C(C)C)c2c(c1)S(=O)(=O)N(COc1cc(C#N)nn1-c1ccc(Cl)cc1)C2=O` returned a melting point of 135 °C.
`CC(=O)Oc1ccc(Cn2c(-c3ccccc3)nc(Cl)c2CC(=O)O)cc1C` yielded a melting point of 200 to 203 °C.
Next, `CCOC(=O)c1cccc(-c2cc3c(Cl)ncnc3[nH]2)c1`: more than 250 °C.
As for `CC(C)OC(=O)C(C)(C)Oc1ccc(C(=O)c2ccc(O)cc2)cc1`, the melting point came to 124 °C.
Regarding `CC(n1cncn1)C(O)(COc1ccc(F)cc1)C(C)(C)C` (configuration not stated), the melting point was in the range of 85 to 100 °C.
The molecule `CC1(C)O[C@H]2[C@H](OCc3ccccc3)O[C@H](C(=O)O)[C@H]2O1` showed a melting point of 79 °C.
Next, `O=C(Nc1cccc(Br)c1)NC1N=C(c2ccccc2F)c2ccccc2N(CC(=O)N2CC3CCC(CC3)C2)C1=O` (racemic): 173 to 186 °C; `C=Cc1cc(CNC(=O)C#Cc2ccc(C(C)(C)C)cc2)cc(F)c1NS(C)(=O)=O`: 155 to 157 °C.
The molecule `CCc1cc(C2(c3ccc(F)c(-c4cncc(F)c4)c3)N=C(N)N(C)C2=O)cc(CC)n1` (configuration not stated) displayed a melting point of 155 to 157 °C.
`O=C(O)CCNC(=O)CCC(=O)Nc1cccc2ccccc12` had a melting point of 180 to 182 °C.
With `CCCCCCCCCCCCc1ccc(S(=O)(=O)Nc2nnc(C)s2)cc1`, the melting point is 149 to 150 °C.
In turn, `Cc1nnc2n1-c1ccc([N+](=O)[O-])cc1C(c1ccccc1)=NC2` displayed a melting point of 233 to 234 °C.
Molecule `COc1cnc(Cl)c(C(=O)O)c1` yielded a melting point of 169 to 170 °C.
`FC(F)(F)c1cccc2c(Cl)c3ccccc3c(Cl)c12` returned a melting point of 142 to 143 °C.
On to `Fc1ccc(Nc2nc(N/N=C/c3c(F)cccc3F)nc(N3CCOCC3)n2)cc1`, for which the melting point amounted to 156 °C.
The same measure for `Cc1c(F)c(F)cc(C(=O)O)c1F`: 101 to 102 °C.
`O=C1COc2ccc(Br)cc2C(=O)C1` registered a melting point of 110 to 112 °C.
Molecule `C#CCOc1ccc(C(=O)OC)c(O)c1` displayed a melting point of 142 °C.
Turning to `CC(C)(C)OC(=O)N1CCC[C@H](C(=O)c2ccccc2)C1`, the melting point was 75 to 79 °C.
The same measure for `COc1cc(-c2ncn(-c3ccc(C(F)(F)F)cc3)c2-c2ccc(N(C)C)cc2)cc(OC)c1OC`: 215 to 217 °C; for `Cn1ccc2c1Cc1nncn1C=C2`: 178 °C.
As to `O=C(Nc1ccc(Cl)cc1)NC1N=C(c2ccccc2)c2ccccc2N(CC(=O)N2CCCC2)C1=O` (configuration not stated), the melting point was in the range of 264 to 266 °C.
Next, `ClCCCc1ccc(OCc2ccccc2)cc1`: 34 to 35 °C.
For `COCCC(=O)c1cc2c(=O)n(NS(C)(=O)=O)c(=O)[nH]c2cc1C(F)(F)F`, the melting point lay within 186 to 191 °C.
Molecule `CCCCc1nc(NC(=O)Nc2ccccc2)[nH]c(=O)c1Cc1ccc(-c2ccccc2C(=O)OC)cc1` yielded a melting point of 217 to 219 °C.
Next, `CC(=O)Nc1ccc2oc(-c3ccccc3)c(O)c(=O)c2c1`: 241 to 242 °C; `N[C@]1(C(=O)O)[C@H]2[C@@H](C[C@H]1OCc1ccccc1)[C@@H]2C(=O)O`: more than 250 °C.
The same measure for `CC(C)Oc1ccc(C(=O)NCCN2CCC(Oc3ccc(Cl)c(Cl)c3)CC2)cc1`: 113 to 115 °C.
The same measure for `C#CCN(Cc1ccc2nc(C)[nH]c(=O)c2c1)c1ccc(C(=O)NC(C)(C#N)Cc2ccccc2)cc1` (configuration not stated): 208 to 209 °C.
In turn, `COc1cccc(CC(=O)c2c(O)c3cccnc3n(-c3ccccc3)c2=O)c1` had a melting point of 173 to 174 °C.
For the molecule `O=C(CCl)C1=NOC(c2ccccc2F)C1` (configuration not stated), the melting point is 42 to 44 °C.
`CC(C)(C)OC(=O)Nc1cc(OC(C)(C)C)c(-c2ccccc2F)cc1NC(=O)CC(=O)c1cccc(-n2ccnn2)c1` registered a melting point of 47 to 50 °C.
As for `O=c1c(Cc2cccnc2)cn2c3ccccc3c(=O)c3cccc1c32`, the melting point is 266 to 268 °C.
For `CCCOC1=Nc2ccc(Cl)cc2C(=CCCN)N1CCC`, the melting point fell in the range of 50 to 51 °C.
The same measure for `CC(C)(C)c1ccc(-c2ccc3c(c2)C=C(C(=O)O)CCO3)cc1`: 259 to 261 °C; for `CCOC(=O)C(C)(C)Oc1ccc(-c2ccc(CCNC(=O)c3ccc(OC)cc3)cc2)cc1`: 149 to 150 °C.
On to `COC(=O)c1ccc2oc(C(=O)C(Cc3ccccc3)NC(=O)Cn3c(-c4ccc(F)cc4)ncc(N)c3=O)nc2c1` (configuration not stated), for which the melting point lay in the range of 208 to 213 °C.
Consider `CCc1c(C(=O)C(N)=O)c2c(N)cccc2n1Cc1ccccc1`, for which the melting point is 140 to 144 °C.
Next, `O=C(NCC12CC3CC(CC(C3)C1)C2)c1cc(I)ccc1Cl`: 161 to 162 °C; `Cc1ccc(-c2nc(N)ncc2-c2ccc(=O)n(C(C)C)n2)cc1`: 224 °C; `CCOCc1nc2c(N)nc(C)cc2n1CC(C)C`: 72 to 74 °C.
For the molecule `Cc1onc(-c2ccc(C(F)(F)F)cc2)c1CCC(=O)O`, the melting point was 138 to 139 °C.
`S=c1nc(NCCCOc2cccc(CN3CCCCC3)c2)cc[nH]1` yielded a melting point of 180 to 181 °C.
As for `c1ccc(-c2cc3nnc(-c4ccccc4)n3nc2OCc2cscn2)cc1`, the melting point was 236 °C.
Consider `N#CC1CN1C(=O)NSC(F)(F)F` (configuration not stated), for which the melting point lay within 83 to 85 °C.
In turn, `CCc1nc2cc(Cl)c(F)cc2c(=O)n1CCc1ccccc1` gave a melting point of 150 to 152 °C.
In turn, `CCOCc1nc2c(N)nc(C)c(C)c2n1CC1(O)CCCCC1` yielded a melting point of 194 to 195 °C.
Regarding `Cc1c(C)c2ccc(OCCCN3CCC(NC(=O)c4ccc(N)cc4)CC3)cc2oc1=O`, the melting point fell in the range of 242 to 245 °C.
With `O=c1[nH]c2c(n(O)c1=O)C1=C(CCC(n3ccc(CN4CCN(c5ccc([N+](=O)[O-])cc5)CC4)c3)=C1)CC2`, the melting point is more than 230 °C.
The same measure for `CSC1=NN=C(c2ccc([N+](=O)[O-])cc2)c2cc3c(cc2C1)OCO3`: 280 to 281 °C; for `c1cc(Oc2ccc3c(c2)CCN3)ccn1`: 116 to 118 °C; for `Nc1cccc(Nc2cccc(N)n2)n1`: 171 to 173 °C.
Next, `COc1cc(C(=O)c2ncc3ccc(C(=O)O)cn23)ccc1N`: 306 °C.
The same measure for `COc1ccc(Cc2nnc3c4ccccc4c(Nc4cccc(-c5nnn(C)n5)c4)nn23)cc1`: 262 to 264 °C; for `Cc1noc(-c2ncn3c2CN(C)C(=O)c2c(Cl)cccc2-3)n1`: 212 to 213 °C.
Turning to `COc1ccc2c(c1)C(=O)C(=Cc1ccccc1)C2`, the melting point is 131 to 133 °C.
Molecule `Cc1ccc(C(=O)NC(NC(=S)Nc2ccc(F)cc2F)C(F)(F)F)cc1` (configuration not stated) returned a melting point of 202 to 204 °C.
Next, `CC1CNCCN1c1c(F)c(N)c2c(=O)c(C(=O)O)cn(C3CC3)c2c1F` (configuration not stated): 224 to 226 °C; `CCOC(=O)C(C)(C)c1ccc(-n2c(-c3cc(-c4cnc5ccccc5c4)ccn3)cn(C)c2=O)cc1`: 158 °C; `COc1cc(OC)nc(C(=O)c2cccnc2C(=O)O)n1`: 71 to 73 °C.
Molecule `Cc1cc2cc(CN3CCCC3)cnc2cc1NC(=O)c1ccc(-c2ccc(F)cc2)cc1` returned a melting point of 182 to 187 °C.
The molecule `COc1cc(Nc2cc3c(cc2Nc2ccccc2)C(=O)NC3=O)cc(OC)c1OC` had a melting point of 203 to 205 °C.
Molecule `CC(C)(C)C(=O)COc1ccc(Cl)cc1Cl` had a melting point of 65 °C.
In the case of `Cc1nc2sccn2c1C1=NNC(=O)NC1`, the melting point is 293 to 295 °C.
`CCOC(=O)c1ccc2c3ccccc3n(Cc3ccccc3)c2c1C`: the melting point was in the range of 79 to 80 °C.
Consider `CN1CC2=C(n3cnc(I)c3C1)S(=O)C=C2` (configuration not stated), for which the melting point is 175 to 177 °C.
Consider `O=C1NCCC[C@@H]1NS(=O)(=O)c1c(F)cccc1F`, for which the melting point was 152 to 153 °C.
Consider `CCOC(=O)Cc1nc2c(OCc3ccccc3)cccc2n1C`, for which the melting point was 106 °C.
Turning to `CCc1cn(C2OC(CNC(=O)C(C)Oc3cc(OC)c(Br)cc3Br)C(O)C2F)c(=O)[nH]c1=O` (configuration not stated), the melting point lay within 223 to 224 °C.
With `CCOC(=O)c1[nH]c2cc(Cl)cc(Cl)c2c1NS(=O)(=O)c1ccccc1`, the melting point lay within 245 to 247 °C.
Turning to `CCOC(=O)c1ccc(C(F)(F)F)c(Br)n1`, the melting point lay within 40 to 40.5 °C.
`CC(C)(C)c1cc(I)c(O)c(C=O)c1` yielded a melting point of 77 °C.
For the molecule `Cn1cc(-c2ccccc2)c(=O)c(-c2ccc([N+](=O)[O-])cc2)c1`, the melting point lay within 212 to 214 °C.
